Literature values in patent US20080200520A1, “Iron Modulators” (BTG INTERNATIONAL LIMITED, priority 2005, published 2008).
Where a name gives a salt, the structure may show the parent alone.

Tests used:
[1] = comparative compounds, commercial lots
mice = settings: oral treatment
[2] = comparative compounds, commercial lots; solvent in which soluble
[3] = comparative compounds, commercial lots; remark: listed apart in the source

Compound	Potential Hazards [1]	protection from the effects of MPTP (mice)	Solubility [2]	Stability [3]
Oc1c(I)cc(Cl)c2cccnc12 [Clioquinol]	harmful. Sensitisation by inhalation and skin contact. Causes severe irritation. Readily absorbed through skin. Target organs: eyes and nerves	protect mice from the effects of MPTP	DMSO	stable
Cc1c(O)c(=O)ccn1C [Deferiprone]	–	–	water	stable
CC(=O)N(O)CCCCCNC(=O)CCC(=O)N(O)CCCCCNC(=O)CCC(=O)N(O)CCCCCN [Desferrioxamine Mesylate]	none	–	water	stable
